We go through 1 molecule from patent publication US7862804B2, “Admistration of C-glycoside compounds for depigmenting/whitening the skin” (Loreal, priority 2005, dated 2011).

SMILES strings stand for the structures.

This assay relates to actinic lentigines. The experiment in a line: Double blind clinical study versus placebo; dermatologist's clinical evaluation of actinic lentigines. The assay is classed as in vivo, human. How it is done: A clinical evaluation of actinic lentigines was carried out by a dermatologist at the beginning and at the end of the study according to a scale with 7 levels, including 4 main levels: • 0—absent; • 1—few blemishes; • 2—many blemishes; • 3—a great many blemishes; and 3 intermediate levels (0.5; 1.5; 2.5).
The women applied C-β-D-xylopyranoside-2-hydroxypropane at a concentration of 10% by weight with respect to the total weight of the composition in a proportion of 2 mg/cm^2 or the placebo twice daily for 3 months (98 days) to the pre-marked regions.

As for `CC(O)C[C@@H]1OC[C@@H](O)[C@H](O)[C@H]1O` (stereo partly drawn) [C-β-D-xylopyranoside-2-hydroxypropane], the “mean score of actinic lentigines on the treated side, end of study” value (scale with 7 levels, 0-3, 10% by weight, 2 mg/cm^2 topical twice daily for 3 months (98 days), p=0.08) is listed as 0.93+/−0.68. Further, the “mean score of actinic lentigines on the treated side, before treatment” value (scale with 7 levels, 0 absent to 3 a great many blemishes, 15 women, phototype III, baseline of treated side) is reported as 1.07+/−0.62. For the setting “treated side versus placebo side, after 3 months (98 days) of 10% topical twice daily”, the “subjects exhibiting a lower score on the treated side, end of study” value is 54%. Moreover, the “subjects exhibiting a lower score on the treated side, at the beginning of the study” value (treated side versus placebo side, baseline) was 13%.
